Source: patent US6774142B2, “Inhibition by 3-deoxyflavonoids of T-lymphocyte activation and therapies related thereto” (priority 2001, dated 2004)
Blank lines part the entries; values can stand above or below the compound they belong to.

Assays:
[1] = target: Kv1.3 channel (Homo sapiens, UniProt P22001); experiment: Inhibition of the Kv1.3 channel, patch clamp method; format: cell-based
From the text: Furthermore, the invention deals with ion channels that constitute a set of molecular targets through which these 3-deoxyflavonoids exert their biological effects. The flavonoid compounds of this invention can lower and stabilize blood glucose levels in Type-I and Type-II diabetics, and can also ameliorate symptoms of lupus erythematosus, an autoimmune disease affecting several organs. Type-I diabetes is an autoimmune disease in which autoreactive lymphocytes destroy pancreatic P-cells, while the etiology of Type-II diabetes is due to inadequate insulin production and decreased ability of insulin to affect its target end-organs. Since ion channels play a critical role in lymphocytes and in pancreatic β-cell signaling, it is most likely that at least some of the therapeutic effects of flavonoids may arise through blockade of ion channels. […] The non-toxic nature of these flavonoids in humans makes them attractive as nutraceuticals that could complement or replace existing medications and therapies. Inhibition of the Kv1.3 channel was performed utilizing the patch clamp method desctribed by […]. Biol. Chem. 276: 12249.

[2] = system: chronic Type I (BBWor) diabetic rats; experiment: Blood glucose in chronic Type I (BBWor) diabetic rats; format: in vivo, rat; conditions: for blood glucose after treatment: 6 hours; for blood glucose before treatment: time 0; for decrease in blood glucose levels: within 6 hours of a single treatment (luteolin 3 mg intragastrically; PZI insulin subcutaneous)
Protocol: The effect of Luteolin treatment in chronic Type I (BBWor) diabetic rats was examined. In this study, lean male diabetic rats were randomly assigned to 3 treatment groups (3-4 rats/group). Each group received either: (1) 3 mg dose of luteolin intragastrically; (2) a subcutaneous injection of PZI insulin (0.9-1.2 mU/day); or (3) no treatment. Blood glucose was evaluated from time 0 through 6 hours. The data was expressed as average blood glucose relative to time post treatment.

[3] = system: cytotoxic T lymphocyte line CTL264; experiment: CTL cytotoxicity against 264 peptide-pulsed T2 target cells (calcein release); format: cell-based; conditions: for inhibition of calcein release: FIG. 3
Protocol: A cytotoxic T lymphocyte line (CTL—designated CTL264) specific for a peptide antigen (aa 264-272, referred to as the 264 peptide) derived from the tumor suppressor protein p53 was used as a […] to test if luteolin had any effect on CTL cytotoxicity against 264 peptide-pulsed T2 target cells. T2 target cells were pulsed with 264 peptide for 2 hours and labeled with Calcein-AM for 30 minutes and washed three times. Mixtures of T2 cells and CTL264 were incubated for 4 hours. 100 μL supernatants were transferred to a 96-well flat-bottom microtiter plates to read fluorescence (538 nm) to measure calcein release due to cell lysis.
The spontaneous calcein release in cytotoxic T Lymphocytes was determined by incubation of targets in RPMI-10. The maximal calcein release was determined by incubation of targets in Triton X-100. Data are reported as the mean of triplicate determinations.

[4] = system: chronic Type 2 diabetic rats; experiment: Blood glucose in chronic Type 2 diabetic rats, 24 hr dose study; format: in vivo, rat
Protocol: Luteolin was also evaluated for its effect to reduce hyperglycemia in chronic Type 2 diabetic rats. In this study, the dose and frequency of Luteolin treatment was increased to compensate for the enhanced metabolism of the obese rat. First, a 24 hour baseline study was performed on 9 chronic Type 2 rats. […] These same rats were randomly assigned to 3 groups and given 50, 150 and 250 mg doses of Luteolin at three times during the 24 hr period (11 AM, 2 PM and 8 PM). Blood glucose analysis was evaluated every 2 hours.

[5] = system: obese Type II (BBZDR) diabetic rats; experiment: Blood glucose in Type II BBZDR rats, two weeks of treatment; format: in vivo, rat
Protocol: In this example, the dose of luteolin was standardized to 50 mg three times per day in the same group of Type II BBZDR rats from Example 5 over an extended period of treatment of two weeks. […] The data was expressed for each rat as a percentage change in blood glucose level relative to each individual pre-treatment level.

[6] = cited from earlier work
[7] = 50 mg three times per day for two weeks
[8] = fried onions, equivalent to 64 mg quercetin aglycone

Sequence of Kv1.3 channel (P22001 whole entry): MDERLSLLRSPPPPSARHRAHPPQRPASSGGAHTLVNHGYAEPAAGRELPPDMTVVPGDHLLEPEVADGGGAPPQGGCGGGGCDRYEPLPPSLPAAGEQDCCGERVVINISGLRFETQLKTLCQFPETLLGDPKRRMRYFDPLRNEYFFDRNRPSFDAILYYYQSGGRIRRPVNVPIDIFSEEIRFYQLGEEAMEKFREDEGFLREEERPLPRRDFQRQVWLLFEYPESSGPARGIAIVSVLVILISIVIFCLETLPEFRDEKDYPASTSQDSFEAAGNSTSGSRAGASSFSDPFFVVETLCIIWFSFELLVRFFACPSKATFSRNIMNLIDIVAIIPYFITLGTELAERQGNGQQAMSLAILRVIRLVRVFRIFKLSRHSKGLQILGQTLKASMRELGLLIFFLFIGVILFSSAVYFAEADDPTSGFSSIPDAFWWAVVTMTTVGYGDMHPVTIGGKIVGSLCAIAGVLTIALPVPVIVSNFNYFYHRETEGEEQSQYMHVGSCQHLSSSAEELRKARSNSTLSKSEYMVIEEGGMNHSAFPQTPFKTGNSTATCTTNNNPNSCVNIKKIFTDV

block of Kv1.3 channel current vs. control ([1]; 20 uM concentration): approximately 25%
block of Kv1.3 channel current vs. control ([1]; 100 uM concentration): 100%
Compound: O=c1cc(-c2ccc(O)c(O)c2)oc2cc(O)cc(O)c12 [luteolin, 3′,4′,5,7-tetrahydroxyflavone]
blood glucose after treatment [2]: 307 mg/dL
blood glucose before treatment [2]: 445 mg/dL
decrease in blood glucose levels [2]: 31%
inhibition of CTL cytotoxicity against 264-pulsed T2 target cells ([3]; 4 hours incubation, FIG. 2): significantly inhibited
inhibition of calcein release [3]: inhibition of calcein release
decrease in blood glucose levels ([4]; 50 mg three times a day (150 mg total), within 24 hr): 10.2%
drop in blood glucose ([4]; 150 mg three times (450 mg total), 24 hr): 22.9%
decrease in glucose ([4]; 250 mg three times (750 mg total), 24 hr): 27.7%
blood glucose after treatment, one rat ([4]; intermediate dose, one rat, 18 hr): 372 mg/dL
blood glucose before treatment, one rat ([4]; intermediate dose, one rat, start): 777 mg/dL
reduction of blood glucose, one rat ([4]; intermediate dose, one rat, within 18 hr): 52%
reduction of hyperglycemia over all doses ([4]; over a 24 hour period, 50-250 mg doses): 10-28%
average blood glucose after treatment [5, 7]: 389 mg/dL
average drop in blood glucose levels [5, 7]: 41.1%
average blood glucose pre-treatment ([5]; before treatment): 660 mg/dL
increase in blood glucose, rat #3 ([5]; rat #3 with esophagial fistula, two weeks): 9.3%

Compound: insulin [reference compound]
blood glucose after treatment [2]: 112 mg/dL
blood glucose before treatment [2]: 415 mg/dL
decrease in blood glucose levels [2]: 75%

Compound: O=c1c(O)c(-c2ccc(O)c(O)c2)oc2cc(O)cc(O)c12 [quercetin]
distribution phase half-life [6, 8]: 3.8 h
elimination phase half-life [6, 8]: 16.8 h
time of peak plasma levels [6, 8]: 2.9 h
human absorption ([6]; oral): 24%

Compound: O=c1cc(-c2cc(O)c(O)c(O)c2)oc2cc(O)cc(O)c12 [tricetin]
inhibition of calcein release [3]: inhibition of calcein release
